Source: paper PMC3288125 (Cancer Chemotherapy and Pharmacology, 2011)
Several values for one entry are separate records, joined by “and”; a condition that tells them apart may be missing. Identical values can stand only once. Marks after values point to notes of the source that are not given here.

Tests used:
[1] = Serum pharmacokinetics of intravenous 3-AP; assay type: in vivo, human
[2] = Phase I dose escalation of oral 3-AP: adverse events; assay type: in vivo
[3] = system: advanced stage solid cancers; test: Tumor response to oral 3-AP; assay type: in vivo, human
[4] = in vivo, po
advanced stage cancers = details: cited from earlier work
[5] = Serum pharmacokinetics and bioavailability of oral 3-AP
[6] = Intravenous Route, 100 mg 2-hour infusion, individual patients
[7] = 200 mg, represented grade 4 toxicity
[8] = adverse events attributed to treatment, 20 patients
[9] = of 20 enrolled patients, all dose levels
[10] = Oral Route, oral dose 50 mg, individual patients
[11] = Oral Route, oral dose 100 mg, individual patients
[12] = Oral Route, oral dose 150 mg, individual patients
[13] = Oral Route, oral dose 200 mg, individual patients

NC(=S)NN=Cc1ncccc1N [3-AP, 3-aminopyridine-2-carboxaldehyde thiosemicarbazone]
AUC [1, 6]: 8.8 µM·h and 4.8 µM·h and 12.1 µM·h and 14.1 µM·h and 7.0 µM·h and 16.1 µM·h and 25.6 µM·h and 10.2 µM·h and 14.5 µM·h and 8.3 µM·h and 11.3 µM·h and 7.2 µM·h and 5.7 µM·h and 10.0 µM·h
MRT (mean residence time) [1, 6]: 2.4 h and 2.6 h and 3.0 h and 3.5 h and 2.3 h and 2.7 h and 3.1 h
Cmax ([1]; Intravenous Route, 100 mg 2-hour infusion, serum, individual patients): 2800 nM and 5400 nM and 4700 nM and 6700 nM and 1900 nM and 3700 nM and 2700 nM and 3200 nM and 2900 nM and 2100 nM and 2500 nM
Tmax ([1]; human, serum, iv, 100 mg): 2 h
AUC ([1]; human, serum, iv, 100 mg, AUC, Avg., 100 mg 2-hour infusion, mean): 9.5 µM·h
Cmax ([1]; human, serum, iv, 100 mg, Cmax, Avg., 100 mg 2-hour infusion, mean): 3500 ± 1400 nM
MRT ([1]; human, serum, iv, 100 mg, MRT (mean residence time), 100 mg 2-hour infusion, individual patients): 2.5 h
MRT ([1]; human, serum, iv, 100 mg, MRT, Avg., 100 mg 2-hour infusion, mean): 2.8 h
Cmax ([1]; read-out: Cmax, Avg., Intravenous Route, 100 mg 2-hour infusion, mean): 2800 nM
(AST/SGOT), Grade 3–4 [2, 7]: 1 (50) ^* No. of Patients (%)
Neutropenia, Grade 3–4 [2, 7]: 1 (50) ^* No. of Patients (%)
Thrombocytopenia, Grade 3–4 [2, 7]: 1 (50) ^* No. of Patients (%)
(AST/SGOT), Grade 3–4 ([2]; All Gr 3–4, all dose levels): 1 (5) No. of Patients (%)
Anorexia, Grade 3–4 ([2]; All Gr 3–4, all dose levels): 1 (5) No. of Patients (%)
Fatigue, Grade 3–4 ([2]; All Gr 3–4, all dose levels): 1 (5) No. of Patients (%)
Hemoglobin (anemia), Grade 3–4 ([2]; All Gr 3–4, all dose levels): 2 (10) No. of Patients (%)
Hypertension, Grade 3–4 ([2]; All Gr 3–4, all dose levels): 1 (5) No. of Patients (%)
Hypoxia, Grade 3–4 ([2]; All Gr 3–4, all dose levels): 2 (10) No. of Patients (%)
Infection, Grade 3–4 ([2]; All Gr 3–4, all dose levels): 1 (5) No. of Patients (%)
Neutropenia, Grade 3–4 ([2]; All Gr 3–4, all dose levels): 4 (20) No. of Patients (%)
Thrombocytopenia, Grade 3–4 ([2]; All Gr 3–4, all dose levels): 1 (5) No. of Patients (%)
(AST/SGOT), all grades [2, 8]: 10%
(AST/SGOT), all grades, No. of Patients [2, 8]: 2
Alkaline phosphatase, all grades [2, 8]: 10%
Alkaline phosphatase, all grades, No. of Patients [2, 8]: 2
Anorexia, all grades [2, 8]: 20%
Anorexia, all grades, No. of Patients [2, 8]: 4
Diarrhea, all grades [2, 8]: 5%
Diarrhea, all grades, No. of Patients [2, 8]: 1
Fatigue, all grades [2, 8]: 25%
Fatigue, all grades, No. of Patients [2, 8]: 5
Headache, all grades [2, 8]: 20%
Headache, all grades, No. of Patients [2, 8]: 4
Hemoglobin (anemia), all grades, No. of Patients [2, 8]: 7
Hemorrhage, all grades, No. of Patients [2, 8]: 1
Hyperglycemia, all grades [2, 8]: 15%
Hyperglycemia, all grades, No. of Patients [2, 8]: 3
Hypertension, all grades [2, 8]: 5/5%
Hypertension, all grades, No. of Patients [2, 8]: 1/1
Neutropenia, all grades, No. of Patients [2, 8]: 11
Thrombocytopenia, all grades, No. of Patients [2, 8]: 6
Thrombosis, all grades, No. of Patients [2, 8]: 0
Vomiting, all grades [2, 8]: 15%
Vomiting, all grades, No. of Patients [2, 8]: 3
hematological and infectious adverse events observed, number ([2]; among the 20 patients enrolled): 27
Hypokalemia, all grades ([2]; human, in vivo): 5%
Hypokalemia, all grades, No. of Patients ([2]; human, in vivo): 1
Hypotension, all grades ([2]; human, in vivo): 5/5%
Hypotension, all grades, No. of Patients ([2]; human, in vivo): 1/1
Hypoxia, all grades ([2]; human, in vivo): 10%
Hypoxia, all grades, No. of Patients ([2]; human, in vivo): 2
Infection, all grades ([2]; human, in vivo): 15%
Infection, all grades, No. of Patients ([2]; human, in vivo): 3
Nausea, all grades ([2]; human, in vivo): 25%
Nausea, all grades, No. of Patients ([2]; human, in vivo): 5
Therapy discontinued for adverse events ([2]; of 20 patients): 40%
Therapy discontinued for adverse events, patients ([2]; of 20 patients, after a median of 1 cycle): 8
DLT Description ([2]; oral 50 mg every 12 Hrs.): grade 3 hypertension
DLT Description ([2]; oral 150 mg every 12 Hrs.): grade 4 febrile neutropenia
DLT Description ([2]; oral 200 mg every 12 Hrs.): grade 3 hypoxia
MTD by the oral route higher than by the intravenous route ([2]; oral vs intravenous route): 33%
maximum tolerated dose (MTD) of oral 3-AP ([2]; per dose, every 12 hours for 5 doses on days 1–3, 8–10, 15–17 of each 28-day cycle): 150 mg
median duration of stable disease response ([3]; in vivo): 2 months
Stable disease as the best response [3, 9]: 25%
Stable disease as the best response, patients [3, 9]: 5
Therapy discontinued for disease progression ([3]; of 20 patients): 50%
progressive disease confirmed while on study, patients ([3]; of 20 patients): 10
Therapy discontinued for disease progression, patients ([3]; of 20 patients, after a median of 2 cycles): 10
longest progression-free interval ([3]; one patient with pancreatic adenocarcinoma): 15 months
clinical benefit rate ([3]; treated population with advanced solid tumors): 25%
CL/F, Avg. ([4]; human): 0.017 L/h
exposure of orally administered 3-AP versus dose [4]: increased in a dose dependent manner
durable 18-month complete pelvic tumor response rate (advanced stage cancers; phase 1, radiation, cisplatin and three-times weekly intravenous 3-AP 25 mg/m^2, advanced stage cervical cancer, 10 of 10 women): 100%
patients with at least stable disease as a best response (advanced stage cancers; phase I, intravenous 3-AP in combination with gemcitabine, after 4 months of treatment): 42%
stable disease rate (advanced stage cancers; phase II, intravenous 3-AP and gemcitabine, relapsed nonsmall cell lung cancer): 20%
AUC [5, 10]: 5.2 µM·h and 1.9 µM·h and 3.5 µM·h and 1.6 µM·h and 1.4 µM·h and 4.1 µM·h
Cmax [5, 10]: 1500 nM and 900 nM and 500 nM and 1100 nM
MRT [5, 10]: 2.6 h and 3.0 h and 3.4 h
Tmax [5, 10]: 3.0 h and 0.8 h and 1.0 h and 1.3 h
AUC [5, 11]: 6.5 µM·h and 2.3 µM·h
Cmax [5, 11]: 2500 nM
MRT [5, 11]: 3.0 h
AUC [5, 12]: 8.0 µM·h and 21.7 µM·h and 4.3 µM·h and 8.5 µM·h
Cmax [5, 12]: 5900 nM and 1600 nM and 10100 nM
MRT [5, 12]: 3.5 h and 1.7 h and 5.4 h and 3.3 h
Tmax [5, 12]: 0.8 h and 6.0 h
AUC [5, 13]: 56.0 µM·h and 19.5 µM·h
Cmax [5, 13]: 800 nM and 4600 nM
MRT [5, 13]: 3.9 h
Tmax [5, 13]: 3.0 h
bioavailability ([5]; human, serum, po): 67 ± 29%
MRT ([5]; human, serum, po, 50 mg, MRT, oral dose 50 mg, individual patients): 4.2 h
MRT ([5]; human, serum, po, 100 mg, MRT, oral dose 100 mg, individual patients): 2.8 h
AUC ([5]; human, serum, po, 150 mg, AUC, Avg., average for patients receiving an oral dose of 150 mg): 10.6 µM·h
Cmax ([5]; human, serum, po, 150 mg, Cmax, Avg., average for patients receiving an oral dose of 150 mg): 5000 nM
MRT ([5]; human, serum, po, 200 mg, MRT, oral dose 200 mg, individual patients): 2.5 h
MRT ([5]; human, serum, po, MRT, Avg., mean across dose levels): 3.2 h
Tmax ([5]; human, serum, po, Tmax, Avg., mean across dose levels): 1.9 h
